# From patent publication US20230278972A1, “SUBSTITUTED HALOALKYL SULFONANILIDE HERBICIDES” (FMC Corporation, priority 2020, published 2023)
# Assays:
# Format in all cases: in vivo
# [1] = tested on: blackgrass (Alopecurus myosuroides); assay: Test A1 preemergence, blackgrass
# Procedure, shortened: (§1)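 Pre: seeds in loam/sand blend, directed soil spray. Post: potted plants, same soil, 2–10 cm, 1–2 leaf stage. Chemicals in non-phytotoxic solvent + surfactant for both.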
# kochia (Bassia scoparia) = assay: Test A1 preemergence, kochia
# Procedure, shortened: as §1
# [2] = tested on: Oat, Wild (wild oat, Avena fatua); assay: Test A1 postemergence, Oat, Wild; conditions: Postemergence
# Procedure, shortened: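 Postemergence species (ragweed, Palmer pigweed, wild oat) were sprayed at one- to two-leaf stage, 2 to 10 cm tall. Corn was treated preemergence by directed soil spray. Both used a loam soil/sand blend and compounds in a non-phytotoxic solvent mixture with surfactant.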
# [3] = tested on: Ryegrass, Italian (Italian ryegrass, Lolium multiflorum); assay: Test A1 postemergence, Ryegrass, Italian; conditions: Postemergence
# Procedure, shortened: (§2)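 Herbicidal response was scored on plants treated either preemergence, by directed spray onto soil of a loam–sand blend after sowing, or postemergence on potted plants at the one- to two-leaf stage, 2–10 cm high. Test chemicals were carried in a non-phytotoxic solvent mix with surfactant.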
# [4] = tested on: galium (catchweed bedstraw, Galium aparine); assay: Test A1 postemergence, galium; conditions: Postemergence
# Procedure, shortened: as §2
# [5] = tested on: ducksalad (Heteranthera limosa); assay: Test B1 flooded paddy test, ducksalad; conditions: 250 g ai/ha, Flood, applied to paddy water, 2-leaf stage, visually evaluated after 10 to 14 days
# Excerpt: A dash (-) response means no test result.
# [6] = 31 g ai/ha, 0 to 100 scale (0 no effect, 100 complete control)
# [7] = 125 g ai/ha, 0 to 100 scale, 0 no effect, 100 complete control
# [8] = 31 g ai/ha, 0 to 100 scale (0 no effect, 100 complete control), 10 days
SMILES,"Plant response rating, Blackgrass [1, 6]","Plant response rating, Blackgrass [1, 7]","Plant response rating, Kochia (kochia (Bassia scoparia); [6])","Plant response rating, Kochia (kochia (Bassia scoparia); [7])","Plant response rating, Oat, Wild [2, 8]","Plant response rating, Oat, Wild ([2]; 125 g ai/ha, 0 to 100 scale)","Plant response rating, Ryegrass, Italian [3, 8]","Plant response rating, Ryegrass, Italian ([3]; 125 g ai/ha, 0 to 100 scale)","Plant response rating, Galium [4, 8]","Plant response rating, Galium ([4]; 125 g ai/ha, 0 to 100 scale)","Plant response rating, Ducksalad (0 to 100 scale, 0 is no effect, 100 is complete control) [5]"
Cc1c(NS(=O)(=O)C(F)(F)F)cc(C(=O)N2CC(C)OC(C)C2)c(C)c1C (stereo not shown) [Compound 327],0,30,0,70,0,0,0,30,100,100,85
Cc1c(NS(=O)(=O)C(F)(F)F)cc(C(=O)N2CC(C)OC(C)C2)c(C)c1C (stereo not shown) [Compound 328],20,30,20,90,0,0,30,60,80,100,90
"Cc1c(C(=O)N2CCCCC2)cc(N(COC(=O)C(C)(C)C)S(=O)(=O)C(F)(F)F)c(C)c1C [Compound 329, [[(Trifluoromethyl)sulfonyl][2,3,4-trimethyl-5-(1-piperidinylcarbonyl)phenyl]amino]methyl 2,2-dimethylpropanoate]",0,0,0,30,0,0,0,0,50,80,60
"CCOC(=O)N(c1cc(C(=O)N2CCCCC2)c(C)c(C)c1C)S(=O)(=O)C(F)(F)F [Compound 330, Ethyl N-[(trifluoromethyl)sulfonyl]-N-[2,3,4-trimethyl-5-(1-piperidinylcarbonyl)phenyl]carbamate]",0,30,10,40,0,10,0,0,50,60,95
Cc1c(C(=O)N2C[C@@H](C)O[C@@H](C)C2)cc(N(COC(=O)C(C)(C)C)S(=O)(=O)C(F)(F)F)c(C)c1C [Compound 331],0,0,0,20,0,20,10,50,60,90,80
CCOC(=O)N(c1cc(C(=O)N2C[C@@H](C)O[C@@H](C)C2)c(C)c(C)c1C)S(=O)(=O)C(F)(F)F [Compound 332],0,0,20,60,0,30,0,50,80,90,80
Cc1c(C(=O)N2CCCCC2)cc(NS(=O)(=O)C(F)(F)F)c(Cl)c1F [Compound 333],0,0,20,80,0,10,0,0,70,90,70
COC1CCCN(C(=O)c2cc(NS(=O)(=O)C(F)(F)F)c(Cl)c(F)c2C)C1 (stereo not shown) [Compound 334],10,10,0,20,0,0,0,0,60,60,60
C#CCN(C)C(=O)c1cc(NS(=O)(=O)C(F)(F)F)c(Cl)c(F)c1C [Compound 337],40,60,20,50,0,20,0,20,70,100,65
COCC1CC(c2cc(N(COC(=O)C(C)(C)C)S(=O)(=O)C(F)(F)F)c(C)cc2C)=NO1 (stereo not shown) [Compound 338],0,0,0,10,0,10,0,10,50,50,40
CCOC1CC(c2cc(N(COC(=O)C(C)(C)C)S(=O)(=O)C(F)(F)F)c(C)cc2C)=NO1 (stereo not shown) [Compound 339],0,0,0,90,0,0,0,50,30,50,65
CCC1ON=C(c2cc(NS(=O)(=O)C(F)(F)F)c(C)cc2C)C1CC (stereo not shown) [Compound 343],60,90,30,70,0,50,20,80,70,100,45
CCC1ON=C(c2cc(N(COC(=O)C(C)(C)C)S(=O)(=O)C(F)(F)F)c(C)cc2C)C1CC (stereo not shown) [Compound 344],0,30,0,30,20,30,30,40,70,100,90
CCC1ON=C(c2cc(N(C(=O)OCC(C)C)S(=O)(=O)C(F)(F)F)c(C)cc2C)C1CC (stereo not shown) [Compound 345],40,70,20,30,20,40,20,60,80,100,30
